Reference: patent US20160081959A1 (Glanbia plc, priority 2014, published 2016)
Where two headings read alike, the source gives them in different places.

Experiments:
vasodilatory response = conditions: in vivo; cited from earlier work
[1] = Single dose oral pharmacokinetic study in fasted male Sprague Dawley rats (arginine in plasma, LC-MS/MS); assay type: in vivo
Procedure: Oral PK was determined in rats for ASI and several comparative compounds.
Test system: Sprague Dawley rats, male. Aged 7-9 weeks at the time of receipt.
Sample size: Study groups—4 groups per study; 5 animals/group.
The test compounds were administered through oral gavage. Oral route of administration is one of the preferred routes of administration in humans.
Study Group 1: Single dose oral pharmacokinetic study of ResArgin in male Sprague Dawley rats at a dose equivalent to 500 mg of L-Arginine/kg body weight. Male Sprague Dawley Rats aged 8-10 weeks were used for experimentation after a minimum 3 days of acclimatization. Fasted animals were administered ResArgin in a recommended vehicle (0.5% (w/v) Carboxymethylcellulose in sterile water) by oral route with a dose equivalent to 500 mg L-Arginine/kg body weight at dose volume of 10 mL/kg body weight.
Under mild isoflurane anesthesia, blood specimens were collected at time points (0.0 h, 0.16 h, 0.25 h, 0.50 h, 1.00 h, 2.00 h, 4.00 h, 6.00 h) post-dose as mentioned in Table 1 into pre-labeled tubes containing anticoagulant (K2EDTA—2 mg/mL blood) during the next 24 hours. Collected blood specimens were centrifuged at 4000 rpm, 4° C. for 10 minutes and plasma was separated and stored at −80° C. until analysis.
Study Group 2: Single dose oral pharmacokinetic study of L-Arginine in male Sprague Dawley rats at a dose of 500 mg/kg body weight. Male Sprague Dawley Rat aged 8-10 weeks were used for experimentation after a minimum 3 days of acclimatization. Fasted animals were administered L-Arginine in a recommended vehicle (0.5% (w/v) Carboxymethylcellulose in sterile water by oral route with 500 mg/kg body weight at dose volume of 10 mL/kg body weight.
Study Group 3: Single dose oral pharmacokinetic study of L-Arginine HCl in male Sprague Dawley rats at a dose equivalent to 500 mg of L-Arginine/kg body weight. Male Sprague Dawley Rats aged 8-10 weeks were used for experimentation after a minimum 3 days of acclimatization. Fasted animals were administered L-Arginine HCl in a recommended vehicle (0.5% (w/v) Carboxymethylcellulose in sterile water) by oral route with a dose equivalent to 500 mg L-Arginine/kg body weight at dose volume of 10 mL/kg body weight.
Male Sprague Dawley Rats aged 8-10 weeks were used for experimentation after a minimum 3 days of acclimatization.
Bioanalytical method(s) for the determination of arginine in Rat plasma were developed using LC-MS/MS. The developed methods were used for plasma sample analysis. Chromatograms were acquired using Analyst® software version 1.4.2. The concentration of the unknown sample was calculated from the following equation using regression analysis with peak area ratio of standard and ISD vs calibration standards concentration, using weighting factor (1/x^2) in accordance with Equation (1): […]
The pharmacokinetic parameters including Cmax, Tmax, AUC0-t, AUC0-inf, T1/2 and MRTlast of the arginine in rat plasma were determined from the concentration time data by using non-compartmental analysis (Phoenix WinNonlin 6.3, Pharsight Corporation, Princeton, N.J., USA).
Statistical analysis of PK parameters was performed by one way ANOVA followed by Dunnett's Post Test (L-Arginine Base vs ResArgin, L-Arginine HCl, and Arginine Silicate Inositol, respectively).

wound healing [2] = assay: Example 2: topical ASI hydrogel, Vits, et al. ablative laser wound protocol; assay type: in vivo, human; conditions: expected
Procedure: Wound 1 (2013) December 30.
The Vits, et al. protocol is used as follows. In 22 healthy men (experimental group, n=11; control group, n=11) wounds are induced by ablative laser on both thighs. Hydrogel (placebo) is applied on one of the two wounds, and Hydrogel (containing ASI) is applied on the wound of the other thigh. Progress in wound healing was documented via planimetry on days 1, 4 and 7 after wound induction. From day 9 onwards wound inspections were performed daily accompanied by a change of the dressing and a new application of the gel.

[3] = test system: muscle soreness, muscle damage, and recovery; assay: Example 3: clinical study of muscle soreness, muscle damage and recovery; assay type: in vivo, human; conditions: ASI 750 mg 2×/day for 14 days with training regimen; expected
Procedure: Clinical Study to measure muscle soreness, muscle damage, and recovery. Crossover PCT.
Study group: n=16 males exercising <150 mins/week.
Secondary endpoints: NO level, blood pressure, heart rate, leg circumference, patient survey/self-assessment, e.g., visual analog scale (VAS) for pain, intramuscular biopsy.

Nitric oxide (NO) levels = assay: Nitric oxide levels by salivary test strips in the human clinical study; assay type: in vivo
Procedure: NO was measured using salivary test strips, using a color scale for “Depleted”, “Low”, and “Normal” levels. […] Six subjects who were “Depleted” at Visit 2 increased to “Low” at Visit 3, while no subjects went from “Low” at Visit 2 to “Depleted” at Visit 3. In addition, the Visit 3 treatment after 1 hr gave 3 subjects “Depleted”, 4 subjects “Low”, and 3 subjects “Normal.” This “asymmetric” change pattern was statistically significant (p=0.031).

[4] = Human clinical PK/PD/safety study of Nitrosigine (plasma arginine, serum silicon); assay type: in vivo
Source text: See, Kalman D, Feldman S, Samson A, Krieger D., “A clinical evaluation to determine the safety, pharmacokinetics and pharmacodynamics of an inositol-stabilized arginine silicate dietary supplement in healthy adult males,” The FASEB Journal (April 2014) 28(1 Suppl.): LB418.
Purpose: The purpose of this study was to characterize the PK/PD of Nitrosigine®, an inositol-stabilized arginine silicate dietary supplement.
Type: Prospective, pharmacokinetic (PK)/pharmacodynamic (PD)/safety clinical trial.
Dosing: Nitrosigine® was administered as daily doses of 1,500 mg (3×500 mg tablets).
Visit 2: single dose evaluation (0-6 hrs), 1500 mg—this was also utilized as the first dose of the 14 day study. It is noted in addition that Visit 2 is also the beginning of the 14 day study, during which subjects take product once a day for 14 days.
Visit 3: 14 days later, single dose (0-6 hrs)
PK Measurements: Plasma arginine and serum silicon levels were measured after the first dose on Day 1 and again after a dose taken on Day 14, after 14 days of dosing.

[5] = test system: blood proteins related to vasodilation and heart health; assay: Blood proteins after ASI treatment; conditions: in vivo
wound healing [6] = assay: Example 1: oral ASI, Kirk, et al. wound healing protocol in human volunteers; assay type: in vivo; conditions: ASI 1500 mg daily, 2 weeks; expected
Procedure: The Kirk, et al. protocol is used as follows. […] Fifteen volunteers receive a placebo tablet. Fibroplastic wound responses are assessed by inserting a polytetrafluoroethylene catheter subcutaneously into the right deltoid region. Epithelialization is examined by creating a 2×2 cm split thickness wound on the lateral aspect of the upper thigh. Mitogenic response of peripheral blood lymphocytes to concanavalin A, phytohemagglutinin, pokeweed mitogen, and allogeneic stimuli is assayed at the beginning and end of supplementation. Polytetrafluoroethylene catheters were analyzed for alpha-amino nitrogen (assessment of total protein accumulation), hydroxyproline (index of reparative collagen synthesis), and DNA accumulation (index of cellular infiltration).

wound healing [7] = conditions: 17 g/day, after two weeks, cited from earlier work
wounds = conditions: ingested; mice; cited from earlier work
[8] = arginine in plasma, fasted male Sprague Dawley rats, single oral dose equivalent to 500 mg L-Arginine/kg b.w.
[9] = rat, 500 mg/kg, arginine in plasma, fasted male Sprague Dawley rats, single oral dose equivalent to 500 mg L-Arginine/kg b.w.
[10] = rat, 500 mg/kg, arginine in plasma, fasted male Sprague Dawley rats, single oral dose equivalent to 500 mg L-Arginine/kg b.w., read-out: Cmax
[11] = rat, 500 mg/kg, arginine in plasma, fasted male Sprague Dawley rats, single oral dose equivalent to 500 mg L-Arginine/kg b.w., read-out: Tmax
[12] = plasma arginine, rat, oral, 500 mg/kg L-Arginine equivalent

## N=C(N)NCCC[C@H](N)C(=O)O [L-Arginine Base, L-Arginine]
Vasodilatory response
  amount that induces a significant vasodilatory response: ca. 5 grams
[1]; [8]
  AUC% extrap: 8.195 ± 5.9280%
[1]; [9]
  AUC(0-inf): 486 ± 114 µg·h/mL
  AUC(0-t): 445 ± 106 µg·h/mL
  MRT last: 1.66 ± 0.34 h
  half-life: 1.41 ± 0.51 h
[1]; [10]
  Cmax: 202 ± 54.3 µg/mL
[1]; [11]
  Tmax: 0.65 ± 0.335 h

## arginine silicate inositol [ASI]
Wound healing [2]
  wound healing of wounds treated with ASI-containing gel vs placebo hydrogel: more rapid improvement in wound healing
[3]
  cytokine markers of inflammation: decrease or improvement
  listed measurement parameters (e.g. NO levels): improve
Nitric oxide (NO) levels; 1,500 mg/day for two weeks, Visit 2 vs Visit 3
  change in NO levels after 14 days of administration: significant increase
Nitric oxide (NO) levels; Visit 3 treatment after 1 hr
  subjects with NO level Depleted: 3 subjects
  subjects with NO level Low: 4 subjects
  subjects with NO level Normal: 3 subjects
Nitric oxide (NO) levels; salivary NO strips, 10 subjects, 14 days daily dosing
  subjects who were Depleted at Visit 2 and increased to Low at Visit 3: Six
Vasodilatory response
  amount with which similar vasodilatory responses have been shown: 750 mg
[4]; 1,500 mg daily for 14 days, 10 subjects
  adverse events related to the study medication: No adverse events related to the study medication
[4]; in 30 minutes, single dose 1,500 mg, human
  increase of plasma arginine concentration relative to baseline: greater than 30%
[4]; plasma arginine, 10 healthy males, 1,500 mg oral, Day 1
  Arginine absorption: Tmax Day 1: 1.05 ± 0.50 h
[4]; serum silicon, 10 healthy males, 1,500 mg oral, Day 1
  Silicon absorption: Tmax Day 1: 2.15 ± 1.75 h
[4]; single dose, human
  duration of significantly raised blood arginine and silicon levels: up to 3 hours
[5]
  effect on blood proteins related to vasodilation and heart health: significantly enhances
Wound healing [6]
  rate of epithelialization of the skin defect vs placebo: significantly enhanced
  rate of wound healing vs placebo: increased
  serum insulin-like growth factor-1 (IGF-1) levels: significantly elevated
  wound catheter hydroxyproline accumulation and total protein content vs placebo: increase
[1]; [8]
  AUC% extrap: 16.987 ± 10.5790%
  AUCinf: 1499.898 ± 233.6230 µg·h/mL
  AUClast: 1248.990 ± 276.1000 µg·h/mL
  Cmax: 474.300 ± 169.1040 µg/mL
  MRTlast: 2.220 ± 0.2450 h
  T1/2: 2.159 ± 0.8280 h
  Tmax: 1.100 ± 0.5480 h
[1]; [12]
  AUCinf increase compared with Arginine base: 3 fold
  AUCinf increase over Arginine base in plasma: 209%
  Cmax increase compared with Arginine base: 2.35 fold
  Cmax increase over Arginine base in plasma: 135%

## N=C(N)NCCC[C@H](N)C(=O)O [arginine, L-arginine]
Wound healing [7]; 30 elderly patients
  hydroxyproline and protein accumulation at the wound site vs non-supplemented controls: significantly greater
Wound healing [7]
  IGF-1: elevated
  lymphocyte response: elevated

## Cl.N=C(N)NCCC[C@H](N)C(=O)O [L-Arginine HCl, L-Arginine hydrochloride]
Vasodilatory response
  amount that induces a significant vasodilatory response: ca. 5 grams
[1]; [8]
  AUC% extrap: 27.645 ± 23.5890%
[1]; [9]
  AUC(0-inf): 442 ± 122 µg·h/mL
  AUC(0-t): 306 ± 92.7 µg·h/mL
  MRT last: 2.48 ± 0.368 h
  half-life: 3.08 ± 2.08 h
[1]; [10]
  Cmax: 94.7 ± 26.2 µg/mL
[1]; [11]
  Tmax: 1.1 ± 0.548 h

## O=[Si]=O [silica]
wounds
  closing and healing of wounds: effective at helping to close and heal wounds
